Experimental data reported in PubChem BioAssay (NCI).
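Tested at 5 concentrations; 48 h exposure; 96-well plates; endpoints linearly interpolated, else capped at highest concentration. TGI: concentration producing complete growth inhibition.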

Tests used:
Assay in all cases: NCI anticancer screen, dose series, 48 h
CAKI-1 renal = system: CAKI-1 renal
OVCAR-8 ovarian = system: OVCAR-8 ovarian
NCI-H522 lung = system: NCI-H522 lung
HOP-62 NSCLC = system: HOP-62 NSCLC
COLO 205 colon = system: COLO 205 colon
LXFL 529 NSCLC = system: LXFL 529 NSCLC
OVCAR-3 ovarian = system: OVCAR-3 ovarian
SN12C renal = system: SN12C renal
UACC-62 melanoma = system: UACC-62 melanoma
SF-295 CNS = system: SF-295 CNS
SF-268 CNS = system: SF-268 CNS
TK-10 renal = system: TK-10 renal
MOLT-4 leukemia = system: MOLT-4 leukemia
HCT-15 colon = system: HCT-15 colon
KM12 colon = system: KM12 colon
IGROV1 ovarian = system: IGROV1 ovarian
OVCAR-5 ovarian = system: OVCAR-5 ovarian
SW-620 colon = system: SW-620 colon
UO-31 renal = system: UO-31 renal
SK-MEL-5 melanoma = system: SK-MEL-5 melanoma
RPMI-8226 leukemia = system: RPMI-8226 leukemia
HT29 colon = system: HT29 colon
NCI-H23 lung = system: NCI-H23 lung
ACHN renal = system: ACHN renal
DLD-1 colon = system: DLD-1 colon
M14 melanoma = system: M14 melanoma
A549 NSCLC = system: A549 NSCLC
SK-MEL-28 melanoma = system: SK-MEL-28 melanoma
UACC-257 melanoma = system: UACC-257 melanoma
HCT-116 colon = system: HCT-116 colon
A498 renal = system: A498 renal
786-0 renal = system: 786-0 renal
M19-MEL melanoma = system: M19-MEL melanoma
U251 CNS = system: U251 CNS
SK-OV-3 ovarian = system: SK-OV-3 ovarian
SNB-78 CNS = system: SNB-78 CNS
DMS 114 small cell lung = system: DMS 114 small cell lung
HOP-18 NSCLC = system: HOP-18 NSCLC
DMS 273 small cell lung = system: DMS 273 small cell lung
NCI-H460 lung = system: NCI-H460 lung
OVCAR-4 ovarian = system: OVCAR-4 ovarian
LOX IMVI melanoma = system: LOX IMVI melanoma
SF-539 CNS = system: SF-539 CNS
HL-60(TB) leukemia = system: HL-60(TB) leukemia
SK-MEL-2 melanoma = system: SK-MEL-2 melanoma
MALME-3M melanoma = system: MALME-3M melanoma
SNB-19 CNS = system: SNB-19 CNS
CCRF-CEM leukemia = system: CCRF-CEM leukemia
KM20L2 colon = system: KM20L2 colon
K-562 leukemia = system: K-562 leukemia
SNB-75 CNS = system: SNB-75 CNS
RXF 393 renal = system: RXF 393 renal
NCI-H226 lung = system: NCI-H226 lung
SR leukemia = system: SR leukemia
EKVX NSCLC = system: EKVX NSCLC
NCI/ADR-RES ovarian = system: NCI/ADR-RES ovarian
DU-145 prostate = system: DU-145 prostate
MCF7 breast = system: MCF7 breast
HOP-92 NSCLC = system: HOP-92 NSCLC
MDA-MB-435 = system: MDA-MB-435
HS 578T breast = system: HS 578T breast
MDA-MB-231 breast = system: MDA-MB-231 breast
PC-3 prostate = system: PC-3 prostate
HCC-2998 colon = system: HCC-2998 colon
MDA-N = system: MDA-N
BT-549 breast = system: BT-549 breast
T-47D breast = system: T-47D breast

Which TGI (CAKI-1 renal) does the source give for OC12c3ccccc3C1CCCCCC21OCCCO1 (stereo unspecified) here?
Its TGI is greater than 100 µM.

And the TGI (OVCAR-8 ovarian)?
The TGI was greater than 100 µM.

What about the TGI (NCI-H522 lung) of the same molecule?
The TGI was greater than 100 µM.

What about the TGI (HOP-62 NSCLC) of the same molecule?
Its TGI is greater than 100 µM.

And the TGI (COLO 205 colon)?
Its TGI is greater than 100 µM.

What about the TGI (LXFL 529 NSCLC) of the same molecule?
Its TGI is greater than 100 µM.

What about the TGI (OVCAR-3 ovarian) of the same molecule?
The TGI was greater than 100 µM.

And the TGI (SN12C renal)?
The TGI was greater than 100 µM.

And the TGI (UACC-62 melanoma)?
Its TGI is greater than 100 µM.

And the TGI (SF-295 CNS)?
Its TGI is greater than 100 µM.

And the TGI (SF-268 CNS)?
The TGI was greater than 100 µM.

What about the TGI (TK-10 renal) of the same molecule?
Its TGI is greater than 100 µM.

And the TGI (MOLT-4 leukemia)?
Its TGI is greater than 100 µM.

And the TGI (HCT-15 colon)?
Its TGI is greater than 100 µM.

And the TGI (KM12 colon)?
Its TGI is greater than 100 µM.

And the TGI (IGROV1 ovarian)?
The TGI was greater than 100 µM.

And the TGI (OVCAR-5 ovarian)?
The TGI was greater than 100 µM.

And the TGI (SW-620 colon)?
The TGI was greater than 100 µM.

And the TGI (UO-31 renal)?
Its TGI is greater than 100 µM.

What about the TGI (SK-MEL-5 melanoma) of the same molecule?
Its TGI is greater than 100 µM.

And the TGI (RPMI-8226 leukemia)?
Its TGI is greater than 100 µM.

What about the TGI (HT29 colon) of the same molecule?
Its TGI is greater than 100 µM.

What about the TGI (NCI-H23 lung) of the same molecule?
The TGI was greater than 100 µM.

And the TGI (ACHN renal)?
Its TGI is greater than 100 µM.

And the TGI (DLD-1 colon)?
The TGI was greater than 100 µM.

And the TGI (M14 melanoma)?
The TGI was greater than 100 µM.

And the TGI (A549 NSCLC)?
The TGI was greater than 100 µM.

What about the TGI (SK-MEL-28 melanoma) of the same molecule?
The TGI was greater than 100 µM.

What about the TGI (UACC-257 melanoma) of the same molecule?
Its TGI is greater than 100 µM.

What about the TGI (HCT-116 colon) of the same molecule?
Its TGI is greater than 100 µM.

What about the TGI (A498 renal) of the same molecule?
The TGI was greater than 100 µM.

And the TGI (786-0 renal)?
The TGI was greater than 100 µM.

What about the TGI (M19-MEL melanoma) of the same molecule?
Its TGI is greater than 100 µM.

What about the TGI (U251 CNS) of the same molecule?
The TGI was greater than 100 µM.

What about the TGI (SK-OV-3 ovarian) of the same molecule?
Its TGI is greater than 100 µM.

And the TGI (SNB-78 CNS)?
Its TGI is greater than 100 µM.

And the TGI (DMS 114 small cell lung)?
Its TGI is greater than 100 µM.

And the TGI (HOP-18 NSCLC)?
The TGI was greater than 100 µM.

And the TGI (DMS 273 small cell lung)?
Its TGI is greater than 100 µM.

What about the TGI (NCI-H460 lung) of the same molecule?
Its TGI is greater than 100 µM.

And the TGI (OVCAR-4 ovarian)?
The TGI was greater than 100 µM.

And the TGI (LOX IMVI melanoma)?
Its TGI is greater than 100 µM.

What about the TGI (SF-539 CNS) of the same molecule?
The TGI was greater than 100 µM.

What about the TGI (HL-60(TB) leukemia) of the same molecule?
Its TGI is greater than 100 µM.

And the TGI (SK-MEL-2 melanoma)?
Its TGI is greater than 100 µM.

What about the TGI (MALME-3M melanoma) of the same molecule?
The TGI was greater than 100 µM.

What about the TGI (SNB-19 CNS) of the same molecule?
The TGI was greater than 100 µM.

And the TGI (CCRF-CEM leukemia)?
The TGI was greater than 100 µM.

And the TGI (KM20L2 colon)?
Its TGI is greater than 100 µM.

And the TGI (K-562 leukemia)?
The TGI was greater than 100 µM.

What about the TGI (SNB-75 CNS) of the same molecule?
Its TGI is greater than 100 µM.

And the TGI (RXF 393 renal)?
Its TGI is greater than 100 µM.

And the TGI (NCI-H226 lung)?
The TGI was greater than 100 µM.

What does the source list for COc1ccc(C2C3=C(COC3=O)OC(C)(C)Oc3cc4c(cc32)OCO4)cc1OC (stereo unspecified)?
TGI (CAKI-1 renal): > 100 µM; TGI (OVCAR-8 ovarian): > 100 µM; TGI (NCI-H522 lung): > 73.8 µM; TGI (HOP-62 NSCLC): > 100 µM; TGI (COLO 205 colon): 48.1 µM; TGI (OVCAR-3 ovarian): > 100 µM; TGI (SN12C renal): > 100 µM; TGI (UACC-62 melanoma): > 75.4 µM; TGI (SF-295 CNS): 88.4 µM; TGI (SF-268 CNS): > 31.6 µM; TGI (TK-10 renal): > 100 µM; TGI (SR leukemia): > 100 µM; TGI (EKVX NSCLC): > 89.8 µM; TGI (MOLT-4 leukemia): > 100 µM; TGI (HCT-15 colon): > 100 µM; TGI (KM12 colon): 67.2 µM; TGI (NCI/ADR-RES ovarian): 58.7 µM; TGI (IGROV1 ovarian): > 100 µM; TGI (DU-145 prostate): > 100 µM; TGI (MCF7 breast): > 90.9 µM; TGI (OVCAR-5 ovarian): > 100 µM; TGI (SW-620 colon): > 100 µM; TGI (UO-31 renal): > 100 µM; TGI (SK-MEL-5 melanoma): > 74.3 µM; TGI (HOP-92 NSCLC): > 73.8 µM; TGI (RPMI-8226 leukemia): > 100 µM; TGI (HT29 colon): > 100 µM; TGI (NCI-H23 lung): > 100 µM; TGI (MDA-MB-435): 41.3 µM; TGI (ACHN renal): > 100 µM; TGI (M14 melanoma): > 80.3 µM; TGI (A549 NSCLC): > 100 µM; TGI (HS 578T breast): > 100 µM; TGI (SK-MEL-28 melanoma): > 100 µM; TGI (UACC-257 melanoma): > 100 µM; TGI (HCT-116 colon): > 92.3 µM; TGI (A498 renal): 63.8 µM; TGI (786-0 renal): > 100 µM; TGI (U251 CNS): > 100 µM; TGI (SK-OV-3 ovarian): > 100 µM; TGI (NCI-H460 lung): > 100 µM; TGI (MDA-MB-231 breast): > 84.1 µM; TGI (OVCAR-4 ovarian): > 100 µM; TGI (PC-3 prostate): 72.4 µM; TGI (HCC-2998 colon): > 100 µM; TGI (MDA-N): 39.2 µM; TGI (LOX IMVI melanoma): > 100 µM; TGI (BT-549 breast): 99.5 µM; TGI (SF-539 CNS): 72.6 µM; TGI (HL-60(TB) leukemia): > 87.9 µM; TGI (SK-MEL-2 melanoma): > 100 µM; TGI (MALME-3M melanoma): > 100 µM; TGI (SNB-19 CNS): > 100 µM; TGI (CCRF-CEM leukemia): > 100 µM; TGI (T-47D breast): 96.9 µM; TGI (K-562 leukemia): > 95.7 µM; TGI (SNB-75 CNS): 24.8 µM; TGI (RXF 393 renal): 68.8 µM; TGI (NCI-H226 lung): > 100 µM

What does the source list for CC[n+]1c(/C=C/c2ccc(N(CCCl)CCCl)cc2)ccc2cc(I)ccc21?
TGI (CAKI-1 renal): 6.19 µM; TGI (NCI-H522 lung): 1.64 µM; TGI (HOP-62 NSCLC): 3.55 µM; TGI (LXFL 529 NSCLC): 1.52 µM; TGI (OVCAR-3 ovarian): 1.12 µM; TGI (SN12C renal): 2.71 µM; TGI (UACC-62 melanoma): 1.68 µM; TGI (SF-295 CNS): 5.76 µM; TGI (TK-10 renal): 9.04 µM; TGI (SR leukemia): 2.42 µM; TGI (EKVX NSCLC): 12 µM; TGI (MOLT-4 leukemia): 3.03 µM; TGI (HCT-15 colon): 28.1 µM; TGI (IGROV1 ovarian): 8.27 µM; TGI (OVCAR-5 ovarian): 7.77 µM; TGI (SW-620 colon): 6.96 µM; TGI (UO-31 renal): 14.2 µM; TGI (HOP-92 NSCLC): 2.13 µM; TGI (RPMI-8226 leukemia): 1.72 µM; TGI (HT29 colon): 8.19 µM; TGI (NCI-H23 lung): 23.5 µM; TGI (ACHN renal): 9.37 µM; TGI (DLD-1 colon): 6.14 µM; TGI (A549 NSCLC): 13.8 µM; TGI (UACC-257 melanoma): 2.61 µM; TGI (A498 renal): 13.1 µM; TGI (SK-OV-3 ovarian): 6.42 µM; TGI (SNB-78 CNS): 36 µM; TGI (DMS 114 small cell lung): > 100 µM; TGI (HOP-18 NSCLC): 8.54 µM; TGI (NCI-H460 lung): 10.1 µM; TGI (OVCAR-4 ovarian): 2.29 µM; TGI (HCC-2998 colon): 2.58 µM; TGI (LOX IMVI melanoma): 2.85 µM; TGI (SF-539 CNS): 2.4 µM; TGI (HL-60(TB) leukemia): 0.675 µM; TGI (SK-MEL-2 melanoma): 1.39 µM; TGI (MALME-3M melanoma): 2.93 µM; TGI (SNB-19 CNS): 2.35 µM; TGI (KM20L2 colon): 1.88 µM; TGI (K-562 leukemia): 1.6 µM; TGI (SNB-75 CNS): 0.903 µM; TGI (RXF 393 renal): 3.77 µM; TGI (NCI-H226 lung): 5.63 µM
